Results on one compound are retold here after ChEMBL document CHEMBL4219257, “Novel 8-hydroxyquinoline derivatives targeting β-amyloid aggregation, metal chelation and oxidative stress against Alzheimer's disease” (Bioorg Med Chem, 2018).

For orientation: inhibition means the change of the read-out against control, counted positive when it falls. Low readings indicate little suppression, high ones strong suppression. In general, Papp refers to a coefficient for how fast a substance crosses the barrier. Higher therefore signals fast passage.

The test system of data set [1] is PC-12. Kind of data set: Cytoprotection against H2O2-induced apoptosis in rat PC12 cells assessed as necrotic cells at 5 uM preincubated for 4 hrs followed by H2O2 addition measured after 24 hrs by Annexin V-FITC/propidium iodide staining based flow cytometry (reference value: 8.9%). The data set is classed as functional.
For data set [2], the system named is Mus musculus. Kind of data set: Acute toxicity in Kunming mouse assessed as death up to 2000 mg/kg, po measured after 4 hrs. Format: organism-based. The conditions noted are these: in vivo.
A short description of data set [3]: Antioxidant activity assessed as trolox equivalents of AAPH radical scavenging activity at 10 uM preincubated for 15 mins followed by AAPH addition measured every minute for 120 mins by ORAC-FL assay. The data set is classed as functional.
The nature of data set [4]: Cytotoxicity against rat PC12 cells assessed as cell viability at 20 uM after 24 hrs by MTT assay relative to control. Format: cell-based, PC-12. The settings on record: read-out: Activity.
Data set [5] can be described thus: Metal chelating activity assessed as mole fraction of compound required to show 2:1 stoichiometry for compound-Zn2+ complex at 50 uM by Job's plot analysis.
Data set [6] concerns PC-12. Kind of data set: Cytoprotection against H2O2-induced apoptosis in rat PC12 cells assessed as late apoptotic cells at 2.5 uM preincubated for 4 hrs followed by H2O2 addition measured after 24 hrs by Annexin V-FITC/propidium iodide staining based flow cytometry (reference value: 32.6%). Format: functional.
The nature of data set [7]: Inhibition of Zn2+ - induced amyloid beta (1 to 42) (unknown origin) aggregation at 50 uM after 24 hrs by thioflavin T-based fluorometric assay relative to control.
Data set [8] is described as follows: Metal chelating activity assessed as compound-Fe3+ complex formation at 50 uM measured after 30 mins by UV-vis spectrophotometric method.
Data set [9] has as its system Mus musculus. Kind of data set: Acute toxicity in Kunming mouse assessed as effect on water consumption up to 2000 mg/kg, po measured after 4 hrs. Format: organism-based. The settings on record: in vivo.
A short description of a further data set: in vitro. The conditions noted are these: PAMPA. (In general: In PAMPA a lipid-coated filter parts donor from acceptor wells.)
Data set [10] has as its system PC-12. Briefly: Cytoprotection against H2O2-induced oxidative stress in rat PC12 cells assessed as increase in cell viability after 24 hrs by MTT assay. Format: functional, cell-based. Background: Formazan colour is commonly taken as a measure of viable cells.

Activity calls are given as the source filed them. The rule behind the calls is not given here.

Description for in vitro: Permeability of the compound at 100 ug/ml after 10 hrs by PAMPA

`O=C(CCc1ccccc1Cl)N1CCN(Cc2ccc(O)c3ncccc23)CC1`: the Activity is 1.4% in the data set on PC-12 [1]; “Non-Toxic” in the data set on Mus musculus [2]; 2.63 equiv in data set [3]; 0.66 molar ratio in data set [5]; 14.4% with PC-12 [6]; “Non-Toxic” with Mus musculus [9]. The Activity entry with PC-12 [10] was “Dose-dependent effect”. Also, the viability at 24 h, 20 µM in [4] is 83%. Further, the inhibition in data set [7] amounted to 73.3%. Also, in [8], the result was Active. This compound came in with a Papp at 10 h, 100 ug/ml in the data set “in vitro” of 11.1 ×10⁻⁶ cm/s.
